Measured values: patent US20100004267A1, “LIQUID PREPARATION” (ASUBIO PHARMA CO., LTD., priority 2006, published 2010)

What was measured:
aorta of rat = experiment: Blood vessel stimulus and precipitation at administration site (Test example 2); format: in vivo; conditions: no solubilizing agent in saline, 72 hour
Method: Saline, a solution in saline to which 0.1% of Tween80 was added, and a solution in saline to which 0.5, 1.0, 2.0 or 3.0% of β-cyclodextrin sulfobutyl ether sodium salt dissolving various concentrations described in Table 2 below of SUN N8075 were prepared, and administered to aorta of rat, and precipitation of SUN N8075 and presence of stimulus (blood vessel stimulus) on tissues at the site of administration were evaluated.

[1] = Stability test based on difference of pH buffer, 6 months (Test example 4); format: physicochemical; set-up: key to Insoluble materials: ◯ means absence of insoluble matters; X: × means presence of insoluble matters
Method: According to experimental formulations and target pH shown in Table 4 below, liquid preparations were prepared in the following manner.
After filtering this solution under reduced pressure, 20 mL of this solution was filled into a brown ampule subjected to inner wall treatment by SiO2 glass film (Silicoat ampule; brown 20 mL-volume; available from FUJI GLASS CO., LTD.), and then the ampule was sealed. Using high-pressure steam sterilizer (autoclave), the ampule was autoclaved in a setting condition: 121° C./24 minutes.
The samples were stored at 5° C., 25° C./60% relative humidity (RH), […] were evaluated in time series until a lapse of 6 months, after evaluating presence/absence of insoluble foreign matters after autoclave sterilization. For evaluation of insoluble foreign matters, an appearance checker was used and observation was conducted under 1,000 Lux. […]
Likewise the foregoing (1) liquid preparation with acetic acid buffer system (for pH adjustment, 1 mol/L or 0.1 mol/L hydrochloric acid was used), each sample was prepared according to the experimental formulations and target pH shown in Table 4 below, and each sample was stored at 5° C., 25° C./60% relative humidity (RH), […] were evaluated in time-series until a lapse of 6 months, after evaluating presence/absence of insoluble foreign matters after autoclave sterilization. […]

[2] = acetic acid/sodium acetate buffer, Captisol 10.0%, pH at preparation 3.8 (Table 4 no. 3), 40° C./75% RH/6 months
[3] = acetic acid/sodium acetate buffer, Captisol 10.0%, pH at preparation 4.2 (Table 4 no. 4), 40° C./75% RH/6 months
[4] = glycine buffer, Captisol 7.5%, pH at preparation 3.8 (Table 4 no. 5), 40° C./75% RH/6 months
[5] = glycine buffer, Captisol 7.5%, pH at preparation 4.2 (Table 4 no. 6), 40° C./75% RH/6 months
[6] = glycine buffer, Captisol 10.0%, pH at preparation 3.8 (Table 4 no. 7), 40° C./75% RH/6 months
[7] = glycine buffer, Captisol 10.0%, pH at preparation 4.2 (Table 4 no. 8), 40° C./75% RH/6 months

## Cc1cc(OC[C@@H](O)CN2CCN(c3ccc(Cc4ccc(F)cc4)cc3)CC2)c(C)c(C)c1N [SUN N8075, (2S)-1-(4-amino-2,3,5-trimethylphenoxy)-3-{4-[4-(4-fluorobenzyl)phenyl]-1-piperazinyl}-2-propanol dimethane sulfonate]
Aorta of rat; drug conc. 0.23 mg/mL
  Blood vessel stimulation: Detected
  Precipitation at administration site: Detected*^1
Aorta of rat; drug conc. 0.7 mg/mL
  Blood vessel stimulation: Detected
  Precipitation at administration site: Detected*^1
Aorta of rat; drug conc. 2.3 mg/mL
  Blood vessel stimulation: Detected
  Precipitation at administration site: Detected*^1
[1]; acetic acid/sodium acetate buffer, Captisol 7.5%, pH at preparation 3.8 (Table 4 no. 1), 5° C./6 months
  Insoluble materials: ◯
[1]; acetic acid/sodium acetate buffer, Captisol 7.5%, pH at preparation 3.8 (Table 4 no. 1), 25° C./60% RH
  Storage period at which generation of insoluble matters was observed: (6 months)
[1]; acetic acid/sodium acetate buffer, Captisol 7.5%, pH at preparation 3.8 (Table 4 no. 1), 25° C./60% RH/6 months
  Insoluble materials: X
[1]; acetic acid/sodium acetate buffer, Captisol 7.5%, pH at preparation 3.8 (Table 4 no. 1), 40° C./60% RH/6 months
  Insoluble materials: ◯
[1]; acetic acid/sodium acetate buffer, Captisol 7.5%, pH at preparation 3.8 (Table 4 no. 1), 40° C./75% RH/6 months
  pH: 2.74
[1]; acetic acid/sodium acetate buffer, Captisol 7.5%, pH at preparation 3.8 (Table 4 no. 1), just after autoclave sterilization
  Insoluble materials: ◯
[1]; acetic acid/sodium acetate buffer, Captisol 7.5%, pH at preparation 4.2 (Table 4 no. 2), 5° C./6 months
  Insoluble materials: ◯
[1]; acetic acid/sodium acetate buffer, Captisol 7.5%, pH at preparation 4.2 (Table 4 no. 2), 25° C./60% RH/6 months
  Insoluble materials: ◯
[1]; acetic acid/sodium acetate buffer, Captisol 7.5%, pH at preparation 4.2 (Table 4 no. 2), 40° C./60% RH
  Storage period at which generation of insoluble matters was observed: (3 months)
[1]; acetic acid/sodium acetate buffer, Captisol 7.5%, pH at preparation 4.2 (Table 4 no. 2), 40° C./60% RH/6 months
  Insoluble materials: X
[1]; acetic acid/sodium acetate buffer, Captisol 7.5%, pH at preparation 4.2 (Table 4 no. 2), 40° C./75% RH/6 months
  pH: 2.96
[1]; acetic acid/sodium acetate buffer, Captisol 7.5%, pH at preparation 4.2 (Table 4 no. 2), just after autoclave sterilization
  Insoluble materials: ◯
[1]; acetic acid/sodium acetate buffer, Captisol 10.0%, pH at preparation 3.8 (Table 4 no. 3), 5° C./6 months
  Insoluble materials: ◯
[1]; acetic acid/sodium acetate buffer, Captisol 10.0%, pH at preparation 3.8 (Table 4 no. 3), 25° C./60% RH/6 months
  Insoluble materials: ◯
[1]; [2]
  Insoluble materials: ◯
  pH: 2.60
[1]; acetic acid/sodium acetate buffer, Captisol 10.0%, pH at preparation 3.8 (Table 4 no. 3), just after autoclave sterilization
  Insoluble materials: ◯
[1]; acetic acid/sodium acetate buffer, Captisol 10.0%, pH at preparation 4.2 (Table 4 no. 4), 5° C./6 months
  Insoluble materials: ◯
[1]; acetic acid/sodium acetate buffer, Captisol 10.0%, pH at preparation 4.2 (Table 4 no. 4), 25° C./60% RH/6 months
  Insoluble materials: ◯
[1]; [3]
  Insoluble materials: ◯
  pH: 2.82
[1]; acetic acid/sodium acetate buffer, Captisol 10.0%, pH at preparation 4.2 (Table 4 no. 4), just after autoclave sterilization
  Insoluble materials: ◯
[1]; glycine buffer, Captisol 7.5%, pH at preparation 3.8 (Table 4 no. 5), 5° C./6 months
  Insoluble materials: ◯
[1]; glycine buffer, Captisol 7.5%, pH at preparation 3.8 (Table 4 no. 5), 25° C./60% RH/6 months
  Insoluble materials: ◯
[1]; [4]
  Insoluble materials: ◯
  pH: 3.46
[1]; glycine buffer, Captisol 7.5%, pH at preparation 3.8 (Table 4 no. 5), just after autoclave sterilization
  Insoluble materials: ◯
[1]; glycine buffer, Captisol 7.5%, pH at preparation 4.2 (Table 4 no. 6), 5° C./6 months
  Insoluble materials: ◯
[1]; glycine buffer, Captisol 7.5%, pH at preparation 4.2 (Table 4 no. 6), 25° C./60% RH/6 months
  Insoluble materials: ◯
[1]; [5]
  Insoluble materials: ◯
  pH: 3.73
[1]; glycine buffer, Captisol 7.5%, pH at preparation 4.2 (Table 4 no. 6), just after autoclave sterilization
  Insoluble materials: ◯
[1]; glycine buffer, Captisol 10.0%, pH at preparation 3.8 (Table 4 no. 7), 5° C./6 months
  Insoluble materials: ◯
[1]; glycine buffer, Captisol 10.0%, pH at preparation 3.8 (Table 4 no. 7), 25° C./60% RH/6 months
  Insoluble materials: ◯
[1]; [6]
  Insoluble materials: ◯
  pH: 3.49
[1]; glycine buffer, Captisol 10.0%, pH at preparation 3.8 (Table 4 no. 7), just after autoclave sterilization
  Insoluble materials: ◯
[1]; glycine buffer, Captisol 10.0%, pH at preparation 4.2 (Table 4 no. 8), 5° C./6 months
  Insoluble materials: ◯
[1]; glycine buffer, Captisol 10.0%, pH at preparation 4.2 (Table 4 no. 8), 25° C./60% RH/6 months
  Insoluble materials: ◯
[1]; [7]
  Insoluble materials: ◯
  pH: 3.74
[1]; glycine buffer, Captisol 10.0%, pH at preparation 4.2 (Table 4 no. 8), just after autoclave sterilization
  Insoluble materials: ◯
